Measured values: patent US11891425B2, “Thioamide-modified peptides and uses thereof” (THE TRUSTEES OF THE UNIVERSITY OF PENNSYLVANIA, priority 2014, dated 2024)

Assay: FIG. 17
Conditions: not given
Experimental: Table printed on a drawing sheet, FIG. 17
The patent's description of the figure: FIG. 17 illustrates systematic scanning of the effects of thioamide modification position in a peptide. The thioamide modifications were conducted at different positions of the peptide chain. The resulting peptides were mixed with either papain or trypsin enzymes to measure the changes of fluorescence intensity. The “+” sign after the peptide sequence means the presence of the corresponding enzyme. The “−” sign after the peptide sequence means the lack of the corresponding enzyme.
First reader's note: Raised S after a residue marks the thioamide position; the half-lives are proteolytic half-lives in the presence of papain or trypsin.

Substance	Papain t1/2 [min]	Trypsin t1/2 [min]
μLLKAAA^Sμ [compound 58]	5	2
μLLKAAAμ [compound 52]	5	1
μLLKAA^SAμ [compound 57]	4	2
μLLKA^SAAμ [compound 56]	>30	3
μLLR^SAAAμ [compound 55]	12	>200
μLL^SKAAAμ [compound 54]	180	2
μL^SLKAAAμ [compound 53]	4	4

Assay: not given
Conditions: in vivo; cited from earlier work

Substance	half-life (in vivo / circulating)
GIP: glucose-dependent insulinotropic factor, SEQ ID NO:5	less than 15 minutes

Same assay, conditions: native peptide, DPP-4 substrate; cited from earlier work

Substance	half-life (in vivo / circulating) [min]
ENT: enterostatin, SEQ ID NO:47 (APGPR; listed as Homo sapiens)	5
GHRH: growth-hormone-releasing hormone, SEQ ID NO:43	19
NPY: neuropeptide Y, SEQ ID NO:23, 36-amino acid peptide	15 to 20
